From US8772480B2, “Inhibitors of PI3 kinase and/or mTOR” (priority 2009, dated 2014)

Assays:
[1] = target: PI3Kα (Homo sapiens (Human), UniProt P42336); settings: read-out: PI3Kα AlphaScreen ® Ki
[2] = target: human mutant B-raf (HuBraf V600E) (Homo sapiens (Human), UniProt P15056, V600E); settings: at 10 μM compound concentration; POC = 100 − percent inhibition
Procedure: B-Raf Homogenous Time Resolved Fluorescence (HTRF) Kinase Assay
The final concentration of the kinase reaction buffer is 50 mM Tris-HCl pH 7.5, 10 mM MgCl2, 0.5% glucose, 0.5 mM DTT, 0.01% BSA. […] The detection reaction proceeds for one hour and is read on a RubyStar (BMG Labtech, Durham, N.C.) counter. IC50s for the test compounds are generated using Excel-XLfit software. For single concentration percent of control (POC;=100−percent inhibition) assays, compounds were assayed as above at a single test concentration of 10 M test compound.

[3] = target: ProfilerPro Kinase Selectivity Assay Kit kinases (Homo sapiens, UniProt P31751); type: biochemical; settings: AKT2; 1 μM compound concentration
Procedure: (§1) Compounds were profiled using a LabChip® EZ Reader II platform and a ProfilerPro Kinase Selectivity Assay Kit (Caliper Lifesciences Inc., Hopkinton, Mass.). Compounds were tested at a concentration of 1 M in duplicate, with mean data reported as percent of control (POC).

[4] = target: ProfilerPro Kinase Selectivity Assay Kit kinases (Homo sapiens, UniProt P48730); type: biochemical; settings: CK1 delta; 1 μM compound concentration
Procedure: as §1

[5] = target: ProfilerPro Kinase Selectivity Assay Kit kinases (Homo sapiens, UniProt P12931); type: biochemical; settings: SRC; 1 μM compound concentration
Procedure: as §1

[6] = target: ProfilerPro Kinase Selectivity Assay Kit kinases (Homo sapiens, UniProt P17612); type: biochemical; settings: PKA alpha; 1 μM compound concentration
Procedure: as §1

[7] = target: ProfilerPro Kinase Selectivity Assay Kit kinases (Homo sapiens, UniProt P43405); type: biochemical; settings: SYK; 1 μM compound concentration
Procedure: as §1

[8] = target: ProfilerPro Kinase Selectivity Assay Kit kinases (Homo sapiens, UniProt O14965); type: biochemical; settings: AURORA A; 1 μM compound concentration
Procedure: as §1

[9] = target: ProfilerPro Kinase Selectivity Assay Kit kinases (Homo sapiens, UniProt P06213); type: biochemical; settings: INSR; 1 μM compound concentration
Procedure: as §1

[10] = target: ProfilerPro Kinase Selectivity Assay Kit kinases (Homo sapiens, UniProt Q13188); type: biochemical; settings: MST2; 1 μM compound concentration
Procedure: as §1

[11] = target: ProfilerPro Kinase Selectivity Assay Kit kinases (Homo sapiens, UniProt Q13177); type: biochemical; settings: PAK2; 1 μM compound concentration
Procedure: as §1

[12] = target: ProfilerPro Kinase Selectivity Assay Kit kinases (Homo sapiens, UniProt P06241); type: biochemical; settings: FYN; 1 μM compound concentration
Procedure: as §1

[13] = target: ProfilerPro Kinase Selectivity Assay Kit kinases (Homo sapiens, UniProt Q15418); type: biochemical; settings: RSK1; 1 μM compound concentration
Procedure: as §1

[14] = target: ProfilerPro Kinase Selectivity Assay Kit kinases (Homo sapiens, UniProt O95819); type: biochemical; settings: HGK; 1 μM compound concentration
Procedure: as §1

[15] = target: ProfilerPro Kinase Selectivity Assay Kit kinases (Homo sapiens, UniProt P08069); type: biochemical; settings: IGF1R; 1 μM compound concentration
Procedure: as §1

[16] = tested on: phosphorylation of Akt at Serine 473 in U87 MG cells; experiment: cells; settings: Homo sapiens, U-87 MG, 2 h, read-out: U87Cell IC50, pAkt (Ser 473), U87 MG cells, two hours with compound

PI3Kα, sequence (P42336 whole entry): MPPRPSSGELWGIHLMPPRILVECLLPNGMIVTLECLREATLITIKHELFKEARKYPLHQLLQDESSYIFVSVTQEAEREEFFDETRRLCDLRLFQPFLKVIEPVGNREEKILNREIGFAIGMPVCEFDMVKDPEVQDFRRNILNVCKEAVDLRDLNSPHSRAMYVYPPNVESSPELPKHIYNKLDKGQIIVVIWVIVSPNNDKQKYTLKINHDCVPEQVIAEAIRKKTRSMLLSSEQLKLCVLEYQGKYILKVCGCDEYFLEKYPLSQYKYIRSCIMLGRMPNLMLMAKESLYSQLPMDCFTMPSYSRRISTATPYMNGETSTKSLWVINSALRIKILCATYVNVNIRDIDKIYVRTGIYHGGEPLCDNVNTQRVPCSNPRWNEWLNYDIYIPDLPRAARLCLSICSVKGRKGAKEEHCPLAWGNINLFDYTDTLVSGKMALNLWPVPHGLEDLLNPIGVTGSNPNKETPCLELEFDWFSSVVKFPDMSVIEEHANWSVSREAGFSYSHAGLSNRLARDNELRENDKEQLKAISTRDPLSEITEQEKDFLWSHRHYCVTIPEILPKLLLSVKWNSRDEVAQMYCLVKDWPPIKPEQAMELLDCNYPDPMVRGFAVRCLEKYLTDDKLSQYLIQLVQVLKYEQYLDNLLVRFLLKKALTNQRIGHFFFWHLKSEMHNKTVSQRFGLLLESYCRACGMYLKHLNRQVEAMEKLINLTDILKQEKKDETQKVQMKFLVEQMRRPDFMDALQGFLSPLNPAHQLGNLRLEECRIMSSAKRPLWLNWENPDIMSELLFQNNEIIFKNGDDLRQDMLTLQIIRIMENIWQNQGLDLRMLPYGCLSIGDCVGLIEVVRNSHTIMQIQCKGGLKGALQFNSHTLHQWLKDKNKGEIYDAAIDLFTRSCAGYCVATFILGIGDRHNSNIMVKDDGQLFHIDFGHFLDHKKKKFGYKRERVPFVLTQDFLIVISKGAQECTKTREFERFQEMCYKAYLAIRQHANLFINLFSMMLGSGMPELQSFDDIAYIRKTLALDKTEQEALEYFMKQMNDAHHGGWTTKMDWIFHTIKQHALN
PI3Kα, sequence (P27986 whole entry partner): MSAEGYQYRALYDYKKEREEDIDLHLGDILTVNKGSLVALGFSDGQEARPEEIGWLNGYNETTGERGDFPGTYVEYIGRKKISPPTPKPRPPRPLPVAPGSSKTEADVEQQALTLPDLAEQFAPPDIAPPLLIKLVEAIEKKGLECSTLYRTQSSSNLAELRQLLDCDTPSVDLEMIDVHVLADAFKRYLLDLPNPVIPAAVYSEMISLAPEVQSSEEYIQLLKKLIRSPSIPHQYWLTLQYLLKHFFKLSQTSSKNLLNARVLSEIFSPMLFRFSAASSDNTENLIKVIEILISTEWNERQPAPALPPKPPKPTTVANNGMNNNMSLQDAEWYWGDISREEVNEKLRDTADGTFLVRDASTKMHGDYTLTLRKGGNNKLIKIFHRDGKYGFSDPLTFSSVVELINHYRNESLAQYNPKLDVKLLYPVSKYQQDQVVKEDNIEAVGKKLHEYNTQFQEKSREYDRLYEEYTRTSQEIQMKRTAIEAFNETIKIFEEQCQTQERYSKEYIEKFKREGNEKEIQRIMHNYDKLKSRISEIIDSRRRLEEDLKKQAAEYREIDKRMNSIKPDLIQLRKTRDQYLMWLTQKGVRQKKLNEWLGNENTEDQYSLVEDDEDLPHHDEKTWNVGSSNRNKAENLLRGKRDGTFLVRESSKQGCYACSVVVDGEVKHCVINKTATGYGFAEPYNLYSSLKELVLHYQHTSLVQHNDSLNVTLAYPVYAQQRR
human mutant B-raf (HuBraf V600E), sequence (P15056 whole entry V600E): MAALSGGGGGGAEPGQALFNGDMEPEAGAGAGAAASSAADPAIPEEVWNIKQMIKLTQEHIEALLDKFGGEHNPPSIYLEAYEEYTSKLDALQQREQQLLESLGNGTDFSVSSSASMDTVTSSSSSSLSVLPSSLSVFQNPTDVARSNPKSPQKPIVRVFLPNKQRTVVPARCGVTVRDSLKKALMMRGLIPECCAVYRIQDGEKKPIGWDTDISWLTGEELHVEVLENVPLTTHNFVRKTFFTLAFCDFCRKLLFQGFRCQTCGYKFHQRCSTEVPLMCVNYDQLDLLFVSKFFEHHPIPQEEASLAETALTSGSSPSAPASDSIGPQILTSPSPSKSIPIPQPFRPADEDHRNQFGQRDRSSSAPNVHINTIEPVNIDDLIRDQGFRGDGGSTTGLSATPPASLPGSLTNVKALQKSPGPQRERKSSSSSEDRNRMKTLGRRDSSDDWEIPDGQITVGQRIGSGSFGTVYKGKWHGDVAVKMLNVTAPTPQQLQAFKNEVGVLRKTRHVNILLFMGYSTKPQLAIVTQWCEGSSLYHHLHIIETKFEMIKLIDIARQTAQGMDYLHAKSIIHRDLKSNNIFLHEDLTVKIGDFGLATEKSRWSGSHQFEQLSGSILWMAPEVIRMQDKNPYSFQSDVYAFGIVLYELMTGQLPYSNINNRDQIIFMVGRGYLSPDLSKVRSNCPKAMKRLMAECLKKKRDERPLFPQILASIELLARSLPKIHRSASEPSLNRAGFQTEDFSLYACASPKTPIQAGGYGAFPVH
ProfilerPro Kinase Selectivity Assay Kit kinases (Homo sapiens, UniProt O95819), sequence (O95819 2-1239 limits assumed): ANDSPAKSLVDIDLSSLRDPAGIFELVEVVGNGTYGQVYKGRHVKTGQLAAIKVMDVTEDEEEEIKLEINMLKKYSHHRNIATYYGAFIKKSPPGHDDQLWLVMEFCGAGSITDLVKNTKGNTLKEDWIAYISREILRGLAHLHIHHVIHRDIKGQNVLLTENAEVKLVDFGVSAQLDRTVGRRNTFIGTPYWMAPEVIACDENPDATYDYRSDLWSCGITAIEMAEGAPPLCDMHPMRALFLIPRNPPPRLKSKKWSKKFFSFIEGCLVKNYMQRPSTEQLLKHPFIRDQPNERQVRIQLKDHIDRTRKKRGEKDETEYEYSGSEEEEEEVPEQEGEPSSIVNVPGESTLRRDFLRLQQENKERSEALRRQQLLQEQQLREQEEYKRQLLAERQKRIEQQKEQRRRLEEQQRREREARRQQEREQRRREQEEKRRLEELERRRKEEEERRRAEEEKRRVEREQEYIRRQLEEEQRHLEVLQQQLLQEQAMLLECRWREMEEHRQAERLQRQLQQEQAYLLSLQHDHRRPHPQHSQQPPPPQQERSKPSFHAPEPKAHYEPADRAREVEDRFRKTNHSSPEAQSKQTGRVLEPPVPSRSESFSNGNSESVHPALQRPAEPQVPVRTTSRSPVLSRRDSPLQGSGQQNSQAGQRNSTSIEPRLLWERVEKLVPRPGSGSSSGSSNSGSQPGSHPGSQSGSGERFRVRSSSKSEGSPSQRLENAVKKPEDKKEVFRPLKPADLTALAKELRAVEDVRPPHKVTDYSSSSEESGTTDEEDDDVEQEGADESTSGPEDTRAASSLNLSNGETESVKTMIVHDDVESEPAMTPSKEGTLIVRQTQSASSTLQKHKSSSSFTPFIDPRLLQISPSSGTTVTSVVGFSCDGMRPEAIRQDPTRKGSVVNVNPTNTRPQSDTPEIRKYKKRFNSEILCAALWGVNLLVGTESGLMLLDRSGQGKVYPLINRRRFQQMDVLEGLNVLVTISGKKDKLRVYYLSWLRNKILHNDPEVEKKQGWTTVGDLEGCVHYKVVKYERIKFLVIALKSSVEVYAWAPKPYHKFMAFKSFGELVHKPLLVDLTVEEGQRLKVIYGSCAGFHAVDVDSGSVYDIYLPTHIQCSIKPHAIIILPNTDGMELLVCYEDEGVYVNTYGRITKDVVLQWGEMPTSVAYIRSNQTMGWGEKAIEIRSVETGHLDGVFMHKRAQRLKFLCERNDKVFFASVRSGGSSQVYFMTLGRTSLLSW
ProfilerPro Kinase Selectivity Assay Kit kinases (Homo sapiens, UniProt P12931), sequence (P12931 2-536 limits assumed): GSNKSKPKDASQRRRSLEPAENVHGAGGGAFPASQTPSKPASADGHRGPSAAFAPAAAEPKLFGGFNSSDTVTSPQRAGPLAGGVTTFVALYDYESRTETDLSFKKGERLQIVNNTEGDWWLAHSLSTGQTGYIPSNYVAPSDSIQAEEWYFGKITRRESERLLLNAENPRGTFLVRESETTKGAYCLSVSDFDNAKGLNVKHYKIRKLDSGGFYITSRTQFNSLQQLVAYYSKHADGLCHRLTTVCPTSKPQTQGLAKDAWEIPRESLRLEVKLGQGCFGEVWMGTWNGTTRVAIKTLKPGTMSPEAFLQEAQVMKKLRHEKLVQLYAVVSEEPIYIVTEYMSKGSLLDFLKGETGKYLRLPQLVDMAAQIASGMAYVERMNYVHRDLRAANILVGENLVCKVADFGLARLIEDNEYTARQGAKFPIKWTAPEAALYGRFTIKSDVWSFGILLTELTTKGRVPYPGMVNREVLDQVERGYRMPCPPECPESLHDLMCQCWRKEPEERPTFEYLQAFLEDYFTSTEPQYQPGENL
ProfilerPro Kinase Selectivity Assay Kit kinases (Homo sapiens, UniProt Q13177), sequence (Q13177 2-524 limits assumed): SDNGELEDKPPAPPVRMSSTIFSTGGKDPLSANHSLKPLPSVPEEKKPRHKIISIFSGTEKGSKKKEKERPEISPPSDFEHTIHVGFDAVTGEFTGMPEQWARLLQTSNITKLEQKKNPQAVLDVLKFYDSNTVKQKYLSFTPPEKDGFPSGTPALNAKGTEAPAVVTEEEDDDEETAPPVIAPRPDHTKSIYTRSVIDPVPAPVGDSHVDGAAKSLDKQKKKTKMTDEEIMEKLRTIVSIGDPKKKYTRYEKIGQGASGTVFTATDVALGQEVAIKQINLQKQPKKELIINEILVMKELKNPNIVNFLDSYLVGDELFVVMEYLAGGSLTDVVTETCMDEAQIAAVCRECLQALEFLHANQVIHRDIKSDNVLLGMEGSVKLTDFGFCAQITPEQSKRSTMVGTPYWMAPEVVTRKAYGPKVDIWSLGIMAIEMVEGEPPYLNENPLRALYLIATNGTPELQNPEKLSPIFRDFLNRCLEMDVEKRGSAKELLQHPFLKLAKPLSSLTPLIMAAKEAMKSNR

Row | Compound | Ki [1] [µM] | Mutant B-raf HTRF Assay POC Mean n = 2 [2] | POC (Percent of control) AKT2 [3] [POC] | POC (Percent of control) CK1 delta [4] [POC] | POC (Percent of control) SRC [5] [POC] | POC (Percent of control) PKA alpha [6] [POC] | POC (Percent of control) SYK [7] [POC] | POC (Percent of control) AURORA A [8] [POC] | POC (Percent of control) INSR [9] [POC] | POC (Percent of control) MST2 [10] [POC] | POC (Percent of control) PAK2 [11] [POC] | POC (Percent of control) FYN [12] [POC] | POC (Percent of control) RSK1 [13] [POC] | POC (Percent of control) HGK [14] [POC] | POC (Percent of control) IGF1R [15] [POC] | IC50 [16] [µM]
1 | c1cnc(Nc2cccc3[nH]ncc23)c(-c2ncnc3[nH]cnc23)c1 [Example 18, N-(3-(9H-Purin-6-yl)Pyridin-2-yl)-1H-Indazol-4-Amine] | 22.6 | 3% of Control (POC) | 93 | 35 | 93 | 97 | 63 | 84 | 90 | 96 | 96 | 86 | 96 | 92 | 64 | 
2 | c1cnc(Nc2cccc3[nH]ccc23)c(-c2ncnc3[nH]cnc23)c1 [Example 19, N-(3-(9H-Purin-6-yl)Pyridin-2-yl)-1H-Indol-4-Amine] | 5.62 | 7% of Control (POC) | 110 | 72 | 23 | 70 | 15 | 24 | 88 | 82 | 105 | 33 | 87 | 50 | 94 | 2.37
3 | COc1ccc(Nc2ncccc2-c2ncnc3[nH]cnc23)cn1 [Example 20, N-(6-Methoxypyridin-3-yl)-3-(9H-Purin-6-yl)Pyridin-2-Amine] |  | 72% of Control (POC) | 92 | 93 | 95 | 97 | 107 | 96 | 97 | 95 | 103 | 101 | 97 | 94 | 93 | 
4 | Cc1nc(N)nc(-c2cccnc2Nc2cccc3[nH]ccc23)n1 [Example 22, N-(3-(4-Amino-6-Methyl-1,3,5-Triazin-2-yl)Pyridin-2-yl)-1H-Indol-4-Amine] |  | 118% of Control (POC) | 97 | 91 | 101 | 97 | 96 | 102 | 96 | 98 | 99 | 103 | 100 | 97 | 97 | 
5 | Cc1nc(N)nc(-c2cccnc2Nc2cccc(O)c2)n1 [Example 23, 3-(3-(4-Amino-6-Methyl-1,3,5-Triazin-2-yl)Pyridin-2-Ylamino)Phenol] |  | 100% of Control (POC) | 112 | 70 | 99 | 99 | 110 | 112 | 98 | 101 | 96 | 96 | 103 | 99 | 101 | 
6 | Cc1nc(N)cc(-c2cccnc2Nc2cccc3[nH]ncc23)n1 [Example 27, N-(3-(6-Amino-2-Methylpyrimidin-4-yl)Pyridin-2-yl)-1H-Indazol-4-Amine] | 0.13 | 110% of Control (POC) | 95 | 43 | 89 | 84 | 83 | 78 | 71 | 84 | 99 | 98 | 89 | 91 | 41 | 
7 | Cc1nc(N)nc(-c2cc(CN3CCN(S(C)(=O)=O)CC3)cnc2Nc2cccc(O)c2)n1 [Example 30, 3-(3-(4-Amino-6-Methyl-1,3,5-Triazin-2-yl)-5-((4-(Methyl Sulfonyl)Piperazin-1-yl)Methyl)Pyridin-2-Ylamino)Phenol] | 0.008 | 92% of Control (POC) | 105 | 95 | 103 | 100 | 106 | 100 | 102 | 98 | 105 | 97 | 103 | 96 | 80 | 0.03
8 | Cc1nc(-c2cccnc2Nc2cccc3[nH]ncc23)c2nc[nH]c2n1 [Example 57, N-(3-(2-methyl-9H-purin-6-yl)pyridin-2-yl)-1H-indazol-4-amine] |  | 87% of Control (POC) | 98 | 55 | 93 | 100 | 100 | 99 | 94 | 95 | 95 | 103 | 97 | 93 | 77 | 
9 | COc1ccc(Nc2ncccc2-c2nc(C)nc3[nH]cnc23)cn1 [Example 58, N-(6-methoxypyridin-3-yl)-3-(2-methyl-9H-purin-6-yl)pyridin-2-amine] |  | 97% of Control (POC) | 96 | 104 | 102 | 96 | 86 | 94 | 104 | 100 | 102 | 103 | 94 | 104 | 92 | 
10 | COc1ccc(Nc2ncc(Cc3ccc(S(C)(=O)=O)cc3)cc2-c2nc(C)nc3[nH]cnc23)cn1 [Example 103, N-(6-methoxypyridin-3-yl)-3-(2-methyl-9H-purin-6-yl)-5-(4-(methylsulfonyl)benzyl)pyridin-2-amine] | 0.002 |  | 89 | 120 | 89 | 99 | 99 | 100 | 95 | 98 | 98 | 97 | 100 | 85 | 91 | 0.028
